From paper PMC11609934, “Exploration and characterization of the antimalarial activity of cyclopropyl carboxamides that target the mitochondrial protein, cytochrome b” (European Journal of Medicinal Chemistry, 2024)
Converted amounts (≈) assume the structure as drawn. Read-outs that look alike come from different tables or passages of the source.

Experiments:
[1] = Human HepG2 growth inhibition assay (Cell TitreGlo, 48 h); format: cell-based; settings: human, HepG2 cells, HepG2 cell growth inhibition over 48 h
How it was run: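 HepG2 cells (1000/well, DMEM + 10% FCS) exposed 48 h at 37 °C, 5% CO2 to compound from 50 μM top concentration in 1:2 dilutions, 0.5% DMSO final. Viability read by Cell Titer Glo, normalised to DMSO and 10 μM bortezomib; EC50 by four-parameter variable-slope fit.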

[2] = Human liver microsome stability; format: in vitro ADME; settings: pooled human liver microsomes
Procedure: Human Liver Microsome Stability. A solution of the test compounds in phosphate buffer solution (1 μM) was incubated in pooled human liver microsomes (0.5 mg/mL) for 0, 5, 20, 30, 45 and 60 min at 37 °C in the presence and absence of NADPH regeneration system. The reaction was terminated with the addition of ice-cold acetonitrile containing system suitability standard at designated time points. […] The experiment was carried out in duplicate. Verapamil, diltiazem, phenacetin, and imipramine were used as reference standards.

Rat hepatocyte stability = format: in vitro ADME; settings: pooled rat hepatocytes
Procedure: Rat Hepatocyte Stability. A solution of the test compound in Krebs-Henseliet buffer solution (1 μM) was incubated in pooled rat hepatocytes (1 × 10^6 cells/mL) for 0, 15,30,45, 60, 75 and 90 min at 37 °C (5 % CO2, 95 % relative humidity). The reaction was terminated with the addition of ice-cold acetonitrile containing system suitability standard at designated time points. […] The experiment was carried out in duplicate. Diltiazem, 7-ethoxy coumarin, propranolol, and midazolam were used as reference standards.

[3] = tested on: P. falciparum 3D7 parasites; assay: P. falciparum 3D7 asexual stage LDH assay (72 h); format: cell-based, Plasmodium falciparum; settings: Plasmodium falciparum, read-out: Pf 3D7 EC50 (SD)
How it was run: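 Asexual P. falciparum 3D7 parasites were grown for 72 h over a 10-point, 3-fold series starting at 1 μM in 0.1% DMSO, with 100 nM chloroquine as negative growth control. After freeze-thaw, parasite LDH was read at 650 nm, and EC50 came from a variable-slope sigmoidal fit.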

Pf SB1-A6 strain = assay: Asexual stage assay, SB1-A6 strain; format: cell-based; settings: Plasmodium falciparum, 72 h, read-out: SB1-A6 EC50 (SD)
Procedure: DHODH is essential for the function of the mitochondria ETC and pyrimidine biosynthesis. Compounds that inhibit cyt b typically have reduced activity against parasite strains with increased DHODH levels. To support evidence that the cyclopropyl carboxamide series impacts the mitochondrial ETC, selected analogs were evaluated against both the SB1-A6 strain that has a 2-fold amplification and a C276F SNP in PfDHODH [24] and a Dd2 strain that expresses Saccharomyces cerevisiae DHODH (ScDHODH). ScDHODH has low sequence homology to PfDHODH and is ubiquinone-independent in that it uses fumarate instead of mitochondrial coenzyme Q as an electron acceptor and therefore compounds that inhibit the Plasmodium mitochondrial ETC have reduced activity against the ScDHODH parasite strain.
Cyt b Resistant and ScDHODH Asexual Stage Assays. These assays were conducted as previously described. Briefly, asexual parasite strains indicated in Table 12 were incubated with compound in a dose response format for 72 h. Parasitemia was determined using SYBR-green fluorescence measured by flow cytometry (Thermo Fisher Attune). EC50 values were determined as described for the LDH assay.

[4] = Aqueous solubility (kinetic in PBS, pH 7.4); format: physicochemical; settings: phosphate buffered saline
Procedure: Solubility. The solubility assay was performed using a miniaturized shake flask method. A solution of phosphate buffered saline (PBS) and the test compound (200 μM) was incubated at 25 °C with constant shaking (600 rpm) for 2 h. The samples were filtered using a multiscreen solubility filter plate. The filtrate was half diluted in acetonitrile. A five-point linearity curve was prepared in PBS:acetonitrile (1:1, v/v) at 200, 150, 75, 25 and 2.5 μM. Blank, linearity and test samples (n = 2) were transferred to a UV readable plate and the plate was scanned for absorbance. Best fit calibration curves were constructed using the calibration standards and used to determine the test sample solubility. The experiment was carried out in duplicate. Diethylstilbestrol, haloperidol, and diclofenac sodium were used as reference standards.

Structure (SMILES)	CC50 at 48 h [1] [µM]	microsomal CLint at 1 h, 1 µM [2] [µL/min/mg]	hepatocyte CLint at 1 μM (Rat hepatocyte stability) [µL/min/1e6 cells]	EC50 ([3]; 3D7 / DSM 265, parent 3D7 for resistant populations, LDH assay, 3 experiments (SYBR-green for DSM265)) [µM]	EC50 (Pf SB1-A6 strain) [µM]	solubility at 2 h [4] [µM]	EC50 ([3]; 3D7, 72 h, LDH activity of P. falciparum 3D7 parasites over 72 h, means and SDs, three or more experiments) [µM]
O=C(NC1CC1)c1ccc(CN(Cc2ccc(Cl)cc2Cl)C2CC2)cc1 [W499 (2)]	> 40	177	> 92	0.17	> 10	7.4 (≈ 2.88 µg/mL)	–
CCCN(Cc1ccc(C(=O)NC2CC2)cc1)Cc1ccc(C(F)(F)F)cc1 [WJM280 (108), N-Cyclopropyl-4-((propyl(4-(trifluoromethyl)benzyl)amino)methyl)benzamide]	15	62	> 92	–	> 10	15 (≈ 5.86 µg/mL)	0.04
